Data on 1 molecule can be found in US20110009435A1, “HETERO BICYCLIC CARBOXAMIDE DERIVATIVES AND THEIR PHARMACEUTICAL USE AND COMPOSITIONS” (Pfizer, Inc., priority 2007, published 2011).

Bounds are passed on as bounds.

What all share (type): biochemical
In one assay the target is T1, Human recombinant MMP-12 (Homo sapiens, UniProt P39900).
T1 construct: The catalytic domain of MMP-12 and MMP-15 enzymes were purchased commercially for these assays; purchased
The assay is described as follows: In vitro MMP inhibition assay, MMP-12 catalytic domain (fluorogenic peptide substrate cleavage, Ki). The settings on record: human MMP-12, catalytic domain (CD); read-out: hMMP Ki 12/CD. How it is done:
(§1) Matrix Metalloproteinase inhibitor compounds were analyzed in in vitro MMP Inhibition assays to determine their ability to inhibit the MMP cleavage of peptide substrates. Inhibition constants (Ki) were calculated from the assayed compound-MMP interactions.
(§2) Human recombinant MMP-1, MMP-2, MMP-3, MMP-7, MMP-9, MMP-12, MMP-13, MMP-14 and MMP-15 were used in these assays. The enzymes are prepared following known laboratory procedures. Protocols for the preparation and use of these enzymes are available in the scientific literature. See, e.g., Enzyme Nomenclature (Academic Press, San Diego, Calif., 1992) and the citations therein. See also Frije et al., J. Biol. Chem., 26(24), 16766-73 (1994).
The catalytic domain of MMP-12 and MMP-15 enzymes were purchased commercially for these assays.
(§3) The fluorogenic, methoxycoumarin-containing polypeptide substrate MCA-ArgProLeuGlyLeuDpaAlaArgGluArgNH2 was used as the MMP substrate in the MMP inhibition assays for human recombinant MMP-1, MMP-2, MMP-7, MMP-9, MMP-12, MMP-13, MMP-14 and MMP-15. Here, “MCA” is 7-methoxycoumarin-4-yl acetyl and “Dpa” is 3-(2,4-dinitrophenyl)-L-2,3-di-aminopropionyl group. In the absence of MMP inhibitory activity, the substrate is cleaved at the Gly-Leu peptide bond. The cleavage separates the highly fluorogenic peptide from the 2,4-dinitrophenyl quencher, resulting in an increase of fluorescent intensity.
(§4) For the human MMP-1, MMP-2, MMP-7, MMP-9, MMP-12, MMP-13, MMP-14 and MMP-15 assays, dilutions of the inhibitors (or salts thereof) were prepared in 100% dimethyl sulfoxide (DMSO). The stock solutions were diluted in Buffer A (100 mM Tris-HCl, 100 mM NaCl, 10 mM CaCl2, 0.005% polyoxyethylene 23 lauryl ether, pH 7.5) to obtain solutions with different compound concentrations, i.e., assay solutions with different concentrations of the assayed MMP inhibitory compound in 1% DMSO. The experiment controls contained the same amount of Buffer A/DMSO as the assayed sample, but contained no inhibitor.
(§5) To determine Ki, the inhibitor samples are incubated at room temperature for 1 hr in the presence of enzyme and then 4 μM of appropriate MMP substrate was added, and samples were analyzed on a Tecan SpectraFlour Plus plate reader. The excitation wavelength is 330 nm, and the emission (fluorescence) wavelength is 420 nm. In the absence of MMP inhibitory activity, the substrate is cleaved at the Gly-Leu bond resulting in an increase of relative fluorescence. Inhibition is observed as a reduced rate of increase in relative fluorescence.
(§6) The inhibitors are analyzed using a single low enzyme concentration with a single substrate concentration fixed at or below the Km. This protocol is a modification of method by Knight et al., FEBS Lett., 296(3), 263-266 (1992). Apparent inhibitory constants are determined by non-linear regression of reaction velocity as a function of inhibitor and enzyme concentration using Morrison's equation, as described by Kuzmic, Anal. Biochem. 286, 45-50 (2000). Modifications were made in the non-linear regression method to allow a common control reaction rate and effective enzyme concentration to be shared between all dose-response relationships on a given assay plate. Since the substrate concentration was chosen to be at or below the Km, the apparent Ki's from this analysis were reported as Ki's without correction for the influence of substrate.

The target of assay [1] is T2, catalytic domain of human recombinant MMP-3 (Homo sapiens, UniProt P08254).
T2 construct: made in house
T2 sequence (P08254 100-272 limits assumed): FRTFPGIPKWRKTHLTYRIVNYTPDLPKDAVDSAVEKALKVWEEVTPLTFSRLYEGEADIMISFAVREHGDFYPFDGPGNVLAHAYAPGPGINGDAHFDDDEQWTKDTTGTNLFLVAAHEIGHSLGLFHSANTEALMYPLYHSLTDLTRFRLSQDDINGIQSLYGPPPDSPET
Put plainly: In vitro MMP inhibition assay, MMP-3 catalytic domain (fluorogenic peptide substrate cleavage, Ki). To be noted: human MMP-3, catalytic domain (CD); read-out: hMMP Ki 03/CD. In a few lines:
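The MMP-3 catalytic domain was expressed in E. coli and refolded with zinc. It was preincubated with inhibitor for 1 hr at room temperature in MES buffer pH 6.0 with 1% DMSO, then 4 μM Mca/Dnp fluorogenic peptide was added (ex 330/em 420 nm). Ki came from Morrison-equation fits of rates, with substrate at or below Km and no substrate correction.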

The next assay concerns the target T3, Human recombinant MMP-14 (Homo sapiens, UniProt P50281).
T3 construct: The MMP-14 cDNA may be used to express the catalytic domain enzyme in E. coli inclusion bodies; made in house
Put plainly: In vitro MMP inhibition assay, MMP-14 catalytic domain (fluorogenic peptide substrate cleavage, Ki). The settings on record: human MMP-14, catalytic domain (CD); read-out: hMMP Ki 14/CD. How it is done: as §1, §2
The MMP-14 cDNA may be used to express the catalytic domain enzyme in E. coli inclusion bodies. Then the enzyme is solubilized in urea, purified on a preparative […] reverse phase HPLC column, and refolded in the presence of zinc acetate and purified for use.
as §3, §4, §5
as §6, with “Since the substrate concentration was chosen to be at or below the Km, the apparent Ki's from this analysis were reported as Ki's without correction for the influence of substrate.” left out

T1 sequence (P39900 106-263 limits assumed): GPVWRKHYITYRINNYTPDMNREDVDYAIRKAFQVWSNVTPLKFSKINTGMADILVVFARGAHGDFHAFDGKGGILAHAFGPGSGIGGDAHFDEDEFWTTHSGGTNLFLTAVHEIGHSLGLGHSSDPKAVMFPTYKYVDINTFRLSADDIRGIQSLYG

In the case of `COc1cccc(CNC(=O)c2nc3ccc(F)c(OCCC4CCN(C(=O)CO)CC4)c3c(=O)[nH]2)c1` [Example 34, 6-fluoro-5-[2-(1-glycoloylpiperidin-4-yl)ethoxy]-N-(3-methoxybenzyl)-4-oxo-3,4-dihydroquinazoline-2-carboxamide], the Ki is 6.53 µM at Human recombinant MMP-12, 1.57 µM in assay [1] and above 10 µM at Human recombinant MMP-14.
